Measured values: BindingDB's records for patent US20240158355 (Baylor College of Medicine, 2024)

Columns and labels:
[1] = target: T1, Bromodomain testis-specific protein [287-359] (Homo sapiens, UniProt Q58F21); assay: AlphaScreen Assay
T1 construct: 287-359
Source text: (§1) No details are given.

[2] = target: T2, Bromodomain testis-specific protein [44-116] (UniProt Q58F21); assay: AlphaScreen Assay
T2 construct: 44-116
Source text: as §1

## Cc1cc(N)ccc1-c1nn(C)c2ccc(-c3cncnc3)cc12 [US20240158355, Compound 76]
[1]
  IC50: 9.48 µM
[2]
  IC50: 5.44 µM
